In US20240301322A1, “FUNCTIONALIZED BIODEGRADABLE SURFACTANTS AND METHODS USE” (Locus Solutions IPCo, LLC, priority 2023, published 2024):

Tests used:
[1] = system: Staphylococcus aureus (Gram-positive); experiment: Microbial kill study, log reduction of Staphylococcus aureus; format: cell-based
Protocol: (§1) Studies were conducted to determine the antimicrobial capabilities of cationic arginine derivatized surfactants produced according to embodiments of the subject invention.
(§2) The test organisms were a mixture of Gram-negative and Gram-positive organisms, which served to validate the breadth of the spectrum of control and the utility of the technology for common pathogens of public health concern: Pseudomonas aeruginosa (Gram-negative), Staphylococcus aureus (Gram-positive) and Salmonella entericus (Gram-negative).
(§3) Test bacteria were grown at 32° C. for 24-48 hours in tryptic soy broth, then plated at a starting concentration of 10^7. PBS was used for dilution to achieve the desired cell concentration.
(§4) A stock solution of each antimicrobial treatment was created in water, which was then used to create each desired dilution for treatment: 25, 50, 200, 400, 500, 750, 1,000, 1,500, 2,000 and 4,000 ppm, in an appropriate volume of buffer. Buffers included 100 mM of citric acid, ammonium HCL, PBS or sodium bicarbonate.
(§5) The created cell dilution of 10^7 CFU/mL was mixed with either 100 uL to 900 uL of antimicrobial at the appropriate PPM, or 1-9 mL of antimicrobial at the appropriate PPM. The final concentration of the organism was […] once mixed with the antimicrobial.
(§6) The moment the organism was added to the antimicrobial, the timer was started for the desired time period (0, 2, 5, 6 or 10 min). At the end of the timer, the antimicrobial was neutralized, and dilutions were then plated onto TSA plates and incubated for 24-48 hours at 32° C.
(§7) The negative control comprised 0.1 mL from the organism stock plated onto a TSA plate. For the positive control a serial dilution was set up with a starting concentration of 400 PPM quaternary ammonium compound (QAC) and organism. Dilutions were plated at 102, 103 and 104 CFU/mL.
(§8) After 24 to 48 hours of incubation, plates were removed from the incubator and colony numbers were counted.
(§9) The below scale is commonly used in determining a compound's efficacy, where a greater than or equal to 6-fold logarithmic (≥6 log) reduction in less than 10 minutes is needed for disinfection.
(§10) Table 9 summarizes surface tension reduction at 1000 ppm and log reduction of S. aureus and S. enterica at 0 and 10 min. (200 ppm) for four categories of cationic amino alcohol surfactants according to embodiments of the subject invention.
(§11) The surfactants were produced through the coupling of octanoyl chloride (C8); decanoyl chloride (C10); lauroyl chloride (C12); myristyroyl chloride (C14); palmitoyl chloride (C16); or a linear sophorolipid (SLP), with: arginine ethyl ester (R), histidine ethyl ester (H) or lysine ethyl ester (K).

[2] = Surface tension at 1000 ppm; format: physicochemical
Protocol: (§12) Table 8 summarizes surface tension reduction at 1000 ppm and log reduction of P. aeruginosa at 0 and 10 min. (200 ppm) for two C12 cationic amino alcohol surfactants according to embodiments of the subject invention, LRO (R) and LKO (K), where LRO was produced through the coupling of a lauroyl chloride substrate and arginine ethyl ester and LKO was produced through the coupling of a lauroyl chloride substrate and lysine ethyl ester.
as §10

[3] = system: Salmonella enterica (Gram-negative); experiment: Microbial kill study, log reduction of Salmonella enterica; format: cell-based
Protocol: as §1, §2, §3, §4, §5, §6, §7, §8, §9, §10, §11

Salmonella enterica (G-) = experiment: Stability study at pH 7 over 4 days, log reduction of S. enterica; format: cell-based; conditions: pH 7, 100 ppm; for Activity Reduction S. enterica (G-) 100 ppm 5 min: loss of log reduction Day 0 to Day 4
[4] = system: Pseudomonas aeruginosa (Gram-negative); experiment: Microbial kill study, log reduction of Pseudomonas aeruginosa; format: cell-based
Protocol: as §1, §2, §3, §4, §5, §6, §7, §8, §9, §12

[5] = system: Staphylococcus aureus (G+); experiment: Stability study at pH 7 over 4 days, log reduction of S. aureus; format: cell-based; conditions: pH 7, 100 ppm; for Activity Reduction S. aureus (G+) 100 ppm 5 min: loss of log reduction Day 0 to Day 4
Protocol: FIGS. 3A-3B depict a comparison of pH stability between lauryl arginine ethyl ester (LRE) and a cationic amino alcohol surfactant according to an embodiment of the subject invention (LRO) in different conditions of incubation at pH 7 (A) and pH 10 (B). Oven=45° C., 50% relative humidity; ambient=room temperature.
as §1, §2, §3, §4, §5, §6, §7, §8, §9
Tables 10-11 summarize the pH stability over 4 days for a C12 cationic amino alcohol surfactant according to embodiments of the subject invention, LRO (RO), compared with LAE (RE), where LRO was produced through the coupling of a lauroyl chloride substrate and arginine ethyl ester. Log reductions were measured according to the procedures described above in Example 7.

linear sophorolipid argininol amide [SLP R O]
Log Reduction S. aureus (G+) 200 ppm, 0 min [1]: 0.00 | Log Reduction S. aureus (G+) 200 ppm, 10 min [1]: 2.23 | Surface Tension 1000 ppm ([2]; Table 9): 41.89 mN/m | Log Reduction S. enterica (G-) 200 ppm, 0 min [3]: 0.00 | Log Reduction S. enterica (G-) 200 ppm, 10 min [3]: 0.00

CCCCCCCCCCCC(=O)NC(CO)CCCNC(=N)N (centres unmarked) [C12 R O, lauryl argininol alcohol]
Log Reduction S. enterica (G-) 100 ppm, 0 min (Salmonella enterica (G-); Day 0 Stability): 0.00 | Log Reduction S. enterica (G-) 100 ppm, 2 min (Salmonella enterica (G-); Day 0 Stability): 1.32 | Log Reduction S. enterica (G-) 100 ppm, 5 min (Salmonella enterica (G-); Day 0 Stability): 2.36 | Log Reduction S. enterica (G-) 100 ppm, 0 min (Salmonella enterica (G-); Day 4 Accelerated Stability): 0.00 | Log Reduction S. enterica (G-) 100 ppm, 2 min (Salmonella enterica (G-); Day 4 Accelerated Stability): 0.00 | Log Reduction S. enterica (G-) 100 ppm, 5 min (Salmonella enterica (G-); Day 4 Accelerated Stability): 0.79 | Activity Reduction S. enterica (G-) 100 ppm 5 min (Salmonella enterica (G-)): 66.53% | Log Reduction S. aureus (G+) 200 ppm, 0 min [1]: 0.00 | Log Reduction S. aureus (G+) 200 ppm, 10 min [1]: 6.24 | Surface Tension 1000 ppm ([2]; Table 8): 23.75 mN/m | Surface Tension 1000 ppm ([2]; Table 9): 23.75 mN/m | Log Reduction 200 ppm, 0 min (Pseudomonas aeruginosa) [4]: 1.85 | Log Reduction 200 ppm, 10 min (Pseudomonas aeruginosa) [4]: 6.25 | Log Reduction S. aureus (G+) 100 ppm, 0 min ([5]; Day 0 Stability): 0.00 | Log Reduction S. aureus (G+) 100 ppm, 2 min ([5]; Day 0 Stability): 2.17 | Log Reduction S. aureus (G+) 100 ppm, 5 min ([5]; Day 0 Stability): 6.53 | Log Reduction S. aureus (G+) 100 ppm, 0 min ([5]; Day 4 Accelerated Stability): 0.00 | Log Reduction S. aureus (G+) 100 ppm, 2 min ([5]; Day 4 Accelerated Stability): 0.76 | Log Reduction S. aureus (G+) 100 ppm, 5 min ([5]; Day 4 Accelerated Stability): 6.53 | Activity Reduction S. aureus (G+) 100 ppm 5 min [5]: 0.00% | Log Reduction S. enterica (G-) 200 ppm, 0 min [3]: 0.00 | Log Reduction S. enterica (G-) 200 ppm, 10 min [3]: 6.20

CCCCCCCCCC(=O)NC(CO)CCCNC(=N)N (centres unmarked) [C10 R O]
Log Reduction S. aureus (G+) 200 ppm, 0 min [1]: 0.00 | Log Reduction S. aureus (G+) 200 ppm, 10 min [1]: 6.30 | Surface Tension 1000 ppm ([2]; Table 9): 28.30 mN/m | Log Reduction S. enterica (G-) 200 ppm, 0 min [3]: 0.00 | Log Reduction S. enterica (G-) 200 ppm, 10 min [3]: 6.30

CCCCCCCCCCCCCC(=O)NC(CO)Cc1c[nH]cn1 (centres unmarked) [C14 H O]
Log Reduction S. aureus (G+) 200 ppm, 0 min [1]: 0.00 | Log Reduction S. aureus (G+) 200 ppm, 10 min [1]: 0.00 | Surface Tension 1000 ppm ([2]; Table 9): 22.77 mN/m | Log Reduction S. enterica (G-) 200 ppm, 0 min [3]: 0.00 | Log Reduction S. enterica (G-) 200 ppm, 10 min [3]: 0.00

CCCCCCCC(=O)NC(CO)CCCNC(=N)N (centres unmarked) [C8 R O]
Log Reduction S. aureus (G+) 200 ppm, 0 min [1]: 0.00 | Log Reduction S. aureus (G+) 200 ppm, 10 min [1]: 0.87 | Surface Tension 1000 ppm ([2]; Table 9): 32.15 mN/m | Log Reduction S. enterica (G-) 200 ppm, 0 min [3]: 0.00 | Log Reduction S. enterica (G-) 200 ppm, 10 min [3]: 0.00

CCCCCCCCCCCCCC(=O)NC(CO)CCCNC(=N)N (centres unmarked) [C14 R O]
Log Reduction S. aureus (G+) 200 ppm, 0 min [1]: 0.00 | Log Reduction S. aureus (G+) 200 ppm, 10 min [1]: 6.36 | Surface Tension 1000 ppm ([2]; Table 9): 39.54 mN/m | Log Reduction S. enterica (G-) 200 ppm, 0 min [3]: 0.00 | Log Reduction S. enterica (G-) 200 ppm, 10 min [3]: 6.11

CCCCCCCCCC(=O)NC(CO)Cc1c[nH]cn1 (centres unmarked) [C10 H O]
Log Reduction S. aureus (G+) 200 ppm, 0 min [1]: 0.00 | Log Reduction S. aureus (G+) 200 ppm, 10 min [1]: 0.00 | Surface Tension 1000 ppm ([2]; Table 9): 50.30 mN/m | Log Reduction S. enterica (G-) 200 ppm, 0 min [3]: 0.00 | Log Reduction S. enterica (G-) 200 ppm, 10 min [3]: 0.00

CCCCCCCCCCCC(=O)NC(CO)Cc1c[nH]cn1 (centres unmarked) [C12 H O]
Log Reduction S. aureus (G+) 200 ppm, 0 min [1]: 0.00 | Log Reduction S. aureus (G+) 200 ppm, 10 min [1]: 0.00 | Surface Tension 1000 ppm ([2]; Table 9): 27.36 mN/m | Log Reduction S. enterica (G-) 200 ppm, 0 min [3]: 0.00 | Log Reduction S. enterica (G-) 200 ppm, 10 min [3]: 0.00

CCCCCCCC(=O)NC(CO)Cc1c[nH]cn1 (centres unmarked) [C8 H O]
Log Reduction S. aureus (G+) 200 ppm, 0 min [1]: 0.00 | Log Reduction S. aureus (G+) 200 ppm, 10 min [1]: 0.00 | Surface Tension 1000 ppm ([2]; Table 9): 57.78 mN/m | Log Reduction S. enterica (G-) 200 ppm, 0 min [3]: 0.00 | Log Reduction S. enterica (G-) 200 ppm, 10 min [3]: 0.00

CCCCCCCCCCCCCCCC(=O)NC(CO)CCCNC(=N)N (centres unmarked) [C16 R O]
Log Reduction S. aureus (G+) 200 ppm, 0 min [1]: 0.00 | Log Reduction S. aureus (G+) 200 ppm, 10 min [1]: 4.10 | Surface Tension 1000 ppm ([2]; Table 9): 37.63 mN/m | Log Reduction S. enterica (G-) 200 ppm, 0 min [3]: 0.00 | Log Reduction S. enterica (G-) 200 ppm, 10 min [3]: 2.86

CCCCCCCCCCCC(=O)N[C@@H](CCCNC(=N)N)C(=O)OCC [C12 R E, lauroyl arginine ethyl ester, reference compound]
Log Reduction S. enterica (G-) 100 ppm, 0 min (Salmonella enterica (G-); Day 0 Stability): 0.00 | Log Reduction S. enterica (G-) 100 ppm, 2 min (Salmonella enterica (G-); Day 0 Stability): 6.42 | Log Reduction S. enterica (G-) 100 ppm, 5 min (Salmonella enterica (G-); Day 0 Stability): 6.42 | Log Reduction S. enterica (G-) 100 ppm, 0 min (Salmonella enterica (G-); Day 4 Accelerated Stability): 0.00 | Log Reduction S. enterica (G-) 100 ppm, 2 min (Salmonella enterica (G-); Day 4 Accelerated Stability): 0.00 | Log Reduction S. enterica (G-) 100 ppm, 5 min (Salmonella enterica (G-); Day 4 Accelerated Stability): 0.00 | Activity Reduction S. enterica (G-) 100 ppm 5 min (Salmonella enterica (G-)): 100.00% | Log Reduction S. aureus (G+) 100 ppm, 0 min ([5]; Day 0 Stability): 0.00 | Log Reduction S. aureus (G+) 100 ppm, 2 min ([5]; Day 0 Stability): 6.53 | Log Reduction S. aureus (G+) 100 ppm, 5 min ([5]; Day 0 Stability): 6.53 | Log Reduction S. aureus (G+) 100 ppm, 0 min ([5]; Day 4 Accelerated Stability): 0.00 | Log Reduction S. aureus (G+) 100 ppm, 2 min ([5]; Day 4 Accelerated Stability): 0.93 | Log Reduction S. aureus (G+) 100 ppm, 5 min ([5]; Day 4 Accelerated Stability): 1.14 | Activity Reduction S. aureus (G+) 100 ppm 5 min [5]: 82.54%

CCCCCCCCCCCC(=O)NC(CO)CCCCN (centres unmarked) [C12 K O]
Log Reduction S. aureus (G+) 200 ppm, 0 min [1]: 0.00 | Log Reduction S. aureus (G+) 200 ppm, 10 min [1]: 4.60 | Surface Tension 1000 ppm ([2]; Table 8): 27.82 mN/m | Surface Tension 1000 ppm ([2]; Table 9): 27.82 mN/m | Log Reduction 200 ppm, 0 min (Pseudomonas aeruginosa) [4]: 0.54 | Log Reduction 200 ppm, 10 min (Pseudomonas aeruginosa) [4]: 6.25 | Log Reduction S. enterica (G-) 200 ppm, 0 min [3]: 0.00 | Log Reduction S. enterica (G-) 200 ppm, 10 min [3]: 6.16
